Publication PMC2560999, “A-Type GABA Receptor as a Central Target of TRPM8 Agonist Menthol” (PLoS ONE, 2008)

Test system: T1, GABAA receptor (GABAAR), native, cultured rat hippocampal neurons
T1 construct: gene Gabra1; native receptors of unresolved subunit composition in primary cultured hippocampal neurons (12-16 DIV for firing recordings)
Test: whole-cell patch clamp, peak current
Assay type: cell-based
Conditions: direct activation without GABA; holding potential −50 mV; pH 7.3

CC(C)[C@@H]1CC[C@@H](C)C[C@H]1O [menthol]
EC50: 490 µM
